Test results taken from PubChem BioAssay (NCI).
“And” between values parts separate entries of the source, which are not always exact repeats. Identical values can stand only once.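 48-hour exposure; five concentrations; linearly interpolated endpoints. GI50: concentration for 50% inhibition of growth. The concentration for full growth arrest is given as TGI.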

Tested on: 786-0 renal
Experiment: NCI tumour cell line growth inhibition, 48 h

Compound | GI50 [µM] | TGI [µM]
O=c1/c(=C/c2ccco2)sc2nc3ccccc3n12 | > 100 | > 100
COc1ccc(/C=C/c2nccc3ccccc23)cc1OC |  | > 10
O=C1CCC2(c3ccc(F)cc3)Nc3cc(Cl)ccc3N12 (centres undefined) |  | > 100
C/C(CC(=O)Nc1ccc(C)cc1C)=N/N=C(N)N |  | > 100

Tested on: IGROV1 ovarian
Experiment: NCI tumour cell line growth inhibition, 48 h

Compound | TGI | GI50 [µM]
COC(=O)c1c/c(=N\NC(=O)CC(=O)Nc2ccccc2OC)c2ccccc2o1 | > 100 µM | 
Cn1c2ccccc2c2c(-c3ccccc3)[n+]3ccncc3nc21 | > 100 µM | 70.8
NC(CCC(=O)NC(CSSCCCCS(=O)O)C(=O)NCC(=O)O)C(=O)O (centres undefined) | > 100 µM | 
COC12C=C(C)C(CC1)CC2C(=O)O (centres undefined) | > 100 µM | 
COc1ccc(-c2cnnc3c(-c4cccc(C(F)(F)F)c4)cnn23)cc1 | > 100 µM | 1.97
OCC(O)CC[CH2][Sn]([Br])([c]1ccccc1)[c]1ccccc1 (centres undefined) | > 100 µM | > 100
O=c1c2cc([N+](=O)[O-])ccc2sc2ccsc12 | > 100 µM | 
C=CCCCCCCCCC(=O)[O][Sn]([CH2]CCC)([CH2]CCC)[CH2]CCC | 0.335 µM | 0.148
COc1ccc(C2=CC3CCC2C3)cc1 (centres undefined) | > 100 µM | 
COc1ccc(/C=C/CN(C)CCc2ccccc2)cc1OC | > 100 µM | 
[Cl-].[Dy+3].[O-]/N=C(\c1ccccc1)c1ccccn1.[O-]/N=C(\c1ccccc1)c1ccccn1.[O-]/N=C(\c1ccccc1)c1ccccn1 | > 100 µM | 33.1
COc1ccc(/C(COc2c(-c3ccccc3)oc3ccccc3c2=O)=N\O)cc1 | > 50 µM | 22.9
NC(=O)C(=O)N/N=C(\CC1(O)C(=O)Nc2ccccc21)c1ccc2ccccc2c1 (centres undefined) | > 100 µM | 
Cc1cc2c(cc1C)[n+](=O)c(C(=O)C/C(=N/NC(=O)CC#N)C(=O)Nc1ccccc1C(F)(F)F)c(C)n2[O-] | > 100 µM | 
COc1cc([N+](=O)[O-])cc2c3c(n(C)c12)[C@@]1(C)CCC2c4ccc(OCc5ccccc5)cc4CCC2C1C3 (some centres undefined) | > 100 µM | > 100
COC(=O)/C(=N/NC(=O)C[N+](C)(C)C)C(C(=O)OC)C(=O)C(=O)Nc1ccc(F)cc1 (centres undefined) | > 100 µM | 
CC[C@@H]1C(=O)N(C)c2cnc(Nc3ccc(C(=O)NC4CCN(C)CC4)cc3OC)nc2N1C1CCCC1 | 4.15 µM and 11.8 µM | 
O=C(c1ccccc1)c1nnc(C(=O)c2ccccc2)nn1 | > 344 µM | 
Brc1cccc(C=NC23CC4CC(CC(C4)C2)C3)c1 | > 100 µM | 
Nc1nc(Cl)c2ncn(Cc3ccc(C45CC6CC(CC(C6)C4)C5)c(O)c3)c2n1 | 21.9 µM | 4.72

Compound | TGI | GI50 [µM]
CCC(C)c1c(Cl)nc(Cl)nc1Cl (centres undefined) | 34.5 µM | 
CC(C)c1nc(CN(C)C(=O)N[C@H](C(=O)N[C@@H](Cc2ccccc2)C[C@H](O)[C@H](Cc2ccccc2)NC(=O)OCc2cncs2)C(C)C)cs1 | > 100 µM | 36.4
CCC[CH2][Sn]([CH2]CCC)([O]C(=O)c1cccnc1SC)[O]C(=O)c1cccnc1SC | 2.72 µM | 1.38
O=C1O[C@@H](c2ccc3c(c2)OCO3)C2C(=O)O[C@@H](c3ccc4c(c3)OCO4)C12 (some centres undefined) | > 100 µM | 
O=C1CCC(=O)N2CCCCN12 | > 100 µM | 
CC(C)C(=O)NC(=S)Nc1ccc([N+](=O)[O-])cc1C#N | > 100 µM | 
C/C(CC(=O)Nc1cc(Cl)c(Cl)cc1Cl)=N\NC(N)=O | > 100 µM | 
N#Cc1cc([N+](=O)[O-])ccc1NC(=O)C(=O)Nc1n[nH]c(N)n1 | > 100 µM | 
O=C(/C=C/c1c(O)ccc2ccccc12)c1cccc(O)c1 | > 100 µM | 
CC1=NN(C(=O)Nc2ccccc2)C(=O)C2CCC(=O)N12 (centres undefined) | > 100 µM | 
COC(=O)C1Cc2c(n(Cc3ccccc3)c3ccccc23)C(CCC(=O)O)N1C(C)C (centres undefined) | > 100 µM | 
O=C(O)CNS(=O)(=O)c1ccc(NCc2ccccc2)cc1 | > 100 µM | 
C[C@]12CC[C@H]3[C@@H](CC=C4C[C@@H](O)CC[C@@]43C)[C@@H]1CC[C@@H]2N(CCO)CCO | > 100 µM | 
CC(C)(C)C1C=C(Sc2ccccc2)C(=O)O1 (centres undefined) | > 100 µM | 
CCC[CH2][Sn]1([CH2]CCC)[O]Cc2nc(C)ccc2[O]1 | 28.8 µM | 14.9
O=c1/c(=C/c2ccco2)sc2nc3ccccc3n12 | > 100 µM | > 100
COc1ccc(/C=C/c2nccc3ccccc23)cc1OC | > 10 µM | 
O=C1CCC2(c3ccc(F)cc3)Nc3cc(Cl)ccc3N12 (centres undefined) | > 100 µM | 
C/C(CC(=O)Nc1ccc(C)cc1C)=N/N=C(N)N | > 100 µM | 

Tested on: ACHN renal
Experiment: NCI tumour cell line growth inhibition, 48 h

Compound | TGI | GI50
COC(=O)c1c/c(=N\NC(=O)CC(=O)Nc2ccccc2OC)c2ccccc2o1 | > 100 µM | 
Cn1c2ccccc2c2c(-c3ccccc3)[n+]3ccncc3nc21 | > 100 µM | > 100 µM
NC(CCC(=O)NC(CSSCCCCS(=O)O)C(=O)NCC(=O)O)C(=O)O (centres undefined) | > 100 µM | 
COC12C=C(C)C(CC1)CC2C(=O)O (centres undefined) | > 100 µM | 
COc1ccc(-c2cnnc3c(-c4cccc(C(F)(F)F)c4)cnn23)cc1 | > 100 µM | 3.52 µM
OCC(O)CC[CH2][Sn]([Br])([c]1ccccc1)[c]1ccccc1 (centres undefined) | > 100 µM | > 100 µM
CCc1ccc(/C=C\c2cc(OC)c(OC)c(OC)c2)cc1 | 31.8 µM | 0.0784 µM
O=c1c2cc([N+](=O)[O-])ccc2sc2ccsc12 | > 100 µM | 
C=CCCCCCCCCC(=O)[O][Sn]([CH2]CCC)([CH2]CCC)[CH2]CCC | 0.31 µM | 0.164 µM
COc1ccc(C2=CC3CCC2C3)cc1 (centres undefined) | > 100 µM | 
COc1ccc(/C=C/CN(C)CCc2ccccc2)cc1OC | > 100 µM | 
[Cl-].[Dy+3].[O-]/N=C(\c1ccccc1)c1ccccn1.[O-]/N=C(\c1ccccc1)c1ccccn1.[O-]/N=C(\c1ccccc1)c1ccccn1 | > 100 µM | 34.6 µM
COc1ccc(/C(COc2c(-c3ccccc3)oc3ccccc3c2=O)=N\O)cc1 | 26.3 µM | 10.6 µM
NC(=O)C(=O)N/N=C(\CC1(O)C(=O)Nc2ccccc21)c1ccc2ccccc2c1 (centres undefined) | > 100 µM | 
Cc1cc2c(cc1C)[n+](=O)c(C(=O)C/C(=N/NC(=O)CC#N)C(=O)Nc1ccccc1C(F)(F)F)c(C)n2[O-] | > 100 µM | 
COc1cc([N+](=O)[O-])cc2c3c(n(C)c12)[C@@]1(C)CCC2c4ccc(OCc5ccccc5)cc4CCC2C1C3 (some centres undefined) | > 100 µM | > 100 µM
COC(=O)/C(=N/NC(=O)C[N+](C)(C)C)C(C(=O)OC)C(=O)C(=O)Nc1ccc(F)cc1 (centres undefined) | > 100 µM | 
CC[C@@H]1C(=O)N(C)c2cnc(Nc3ccc(C(=O)NC4CCN(C)CC4)cc3OC)nc2N1C1CCCC1 | > 5.11 µM and 2.24 µM | 0.148 µM and 0.0895 µM
O=C(c1ccccc1)c1nnc(C(=O)c2ccccc2)nn1 | > 344 µM | 
Brc1cccc(C=NC23CC4CC(CC(C4)C2)C3)c1 | > 100 µM | 

Compound | TGI | GI50
Nc1nc(Cl)c2ncn(Cc3ccc(C45CC6CC(CC(C6)C4)C5)c(O)c3)c2n1 | 13.9 µM | 3.35 µM
CCC(C)c1c(Cl)nc(Cl)nc1Cl (centres undefined) | 11.9 µM | 
CC(C)c1nc(CN(C)C(=O)N[C@H](C(=O)N[C@@H](Cc2ccccc2)C[C@H](O)[C@H](Cc2ccccc2)NC(=O)OCc2cncs2)C(C)C)cs1 | 82.3 µM | 29.1 µM
CCC[CH2][Sn]([CH2]CCC)([O]C(=O)c1cccnc1SC)[O]C(=O)c1cccnc1SC | 2.09 µM | 0.878 µM
O=C1O[C@@H](c2ccc3c(c2)OCO3)C2C(=O)O[C@@H](c3ccc4c(c3)OCO4)C12 (some centres undefined) | > 100 µM | 
O=C1CCC(=O)N2CCCCN12 | > 100 µM | 
CC(C)C(=O)NC(=S)Nc1ccc([N+](=O)[O-])cc1C#N | > 100 µM | 
N#Cc1cc([N+](=O)[O-])ccc1NC(=O)C(=O)Nc1n[nH]c(N)n1 | > 100 µM | 
O=C(/C=C/c1c(O)ccc2ccccc12)c1cccc(O)c1 | > 100 µM | 
CC1=NN(C(=O)Nc2ccccc2)C(=O)C2CCC(=O)N12 (centres undefined) | > 100 µM | 
COC(=O)C1Cc2c(n(Cc3ccccc3)c3ccccc23)C(CCC(=O)O)N1C(C)C (centres undefined) | > 100 µM | 
O=C(O)CNS(=O)(=O)c1ccc(NCc2ccccc2)cc1 | > 100 µM | 
C[C@]12CC[C@H]3[C@@H](CC=C4C[C@@H](O)CC[C@@]43C)[C@@H]1CC[C@@H]2N(CCO)CCO | > 100 µM | 
CC(C)(C)C1C=C(Sc2ccccc2)C(=O)O1 (centres undefined) | > 100 µM | 
CCC[CH2][Sn]1([CH2]CCC)[O]Cc2nc(C)ccc2[O]1 | 24.4 µM | 12 µM
O=c1/c(=C/c2ccco2)sc2nc3ccccc3n12 | > 100 µM | > 100 µM
COc1ccc(/C=C/c2nccc3ccccc23)cc1OC | > 10 µM | 
O=C1CCC2(c3ccc(F)cc3)Nc3cc(Cl)ccc3N12 (centres undefined) | > 100 µM | 
C/C(CC(=O)Nc1ccc(C)cc1C)=N/N=C(N)N | > 100 µM | 
